According to PMC5529658, “Antiproliferative and Antibacterial Activities of Cirsium scabrum from Tunisia” (Evidence-based Complementary and Alternative Medicine : eCAM, 2017):

Experiments:
[1] = test system: J774 (macrophage-like cell line, derived from BALB/c murine reticulum cell sarcoma); test: MTT cytotoxicity assay on J774; type: cell-based; settings: for SI (IC50 WI38/IC50 J774): selectivity index WI38 vs J774
Experimental: (§1) Cell Culture. The cytotoxicity was evaluated on two cell lines: J774 (macrophage-like cell line, derived from BALB/c murine reticulum cell sarcoma) and WI38 (human normal fibroblast-like lung cell line), using the tetrazolium salt MTT [3-(4,5-dimethylthiazol-2-yl)-2,5-diphenyltetrazolium bromide (Sigma)] colorimetric method, as described by Bero et al.. J774 cells were cultivated in a humidified atmosphere with 5% CO2 at 37°C in RPMI 1640 medium (Life Technologies, Paisley, UK) containing 2 mM L-glutamine supplemented with 10% heat-inactivated fetal bovine serum (Life Technologies) and penicillin-streptomycin (100 UI/ml). WI38 cells were cultivated in a humidified atmosphere with 5% CO2 at 37°C in DMEM medium (Life Technologies) containing 4 mM L-glutamine, 1 mM sodium pyruvate supplemented with 10% heat-inactivated fetal bovine serum (Life Technologies), and penicillin-streptomycin (100 UI/ml).
Cytotoxicity Assay. Briefly, WI38 or J774 cells were seeded in 96-well plates (5000 cells/well/180 µl medium or 2.8 × 10^4 cells/ml). After 24 h, cells were treated with 20 μl of crude extract and partitions solutions in a fixed concentration of 50 µg/ml to calculate cell viability percentage. […] After 72 h, the medium was replaced by 100 μl of a 10% MTT solution (3 mg/ml in PBS) in medium. After 45 min, the medium was removed again and 100 μl of DMSO was added to solubilize formed formazan crystals. Absorbance was recorded at 570 nm and 620 nm. Each sample was tested in eight serial […] dilutions in 96-well microtiter plates, at least three wells per concentration in duplicate. Camptothecin (Sigma) was used as positive control (concentration range: 25–0.00032 µg/ml).
(§2) Cell viability% = [AT/ANT] × 100, with A: absorbance, NT: control cells, and T: treated cells.

[2] = test system: WI38 (human normal fibroblast-like lung cell line); test: MTT cytotoxicity assay on WI38; type: cell-based; settings: WI-38, 72 h, mean ± SEM, six determinations
Experimental: as §1
Cytotoxicity Assay. Briefly, WI38 or J774 cells were seeded in 96-well plates (5000 cells/well/180 µl medium or 2.8 × 10^4 cells/ml). After 24 h, cells were treated with 20 μl of crude extract and partitions solutions in a fixed concentration of 50 µg/ml to calculate cell viability percentage. […] Absorbance was recorded at 570 nm and 620 nm. […]
as §2

[3] = test system: several cultured human cancer cell lines; settings: cited from earlier work
[4] = test system: Corynebacterium striatum T46C1; test: Antimicrobial assay (MIC, agar dilution); type: cell-based; settings: vancomycin
Experimental: (§3) The antimicrobial activity of crude extract and partitions was evaluated against 36 pathogenic microorganisms (22 Gram-positive bacteria, 13 Gram-negative bacteria, and 1 yeast) according to Mahamodo et al.. The 36 microorganisms were grown overnight at 37°C on sloping Mueller-Hinton (MH) agar medium. Briefly, the bacteria were diluted with Ringer's Cysteine (RC) solution to obtain 10^6 bacteria/ml. […] Inocula of 10^4 colony forming units (CFU) were spotted ultimately with a multipoint inoculator (Steers Replicator).

[5] = test system: Staphylococcus capitis T21A3; test: Antimicrobial assay (MIC, agar dilution); type: cell-based; settings: vancomycin
Experimental: as §3

[6] = test system: Staphylococcus aureus 8142; test: Antimicrobial assay (MIC, agar dilution); type: cell-based; settings: vancomycin
Experimental: as §3

[7] = test system: Staphylococcus capitis T29A2; test: Antimicrobial assay (MIC, agar dilution); type: cell-based; settings: vancomycin
Experimental: as §3

[8] = test system: Staphylococcus pettenkoferi T282; test: Antimicrobial assay (MIC, agar dilution); type: cell-based; settings: vancomycin
Experimental: as §3

[9] = test system: Staphylococcus aureus 8143; test: Antimicrobial assay (MIC, agar dilution); type: cell-based; settings: vancomycin
Experimental: as §3

[10] = test system: Staphylococcus lugdunensis T36A1; test: Antimicrobial assay (MIC, agar dilution); type: cell-based; settings: vancomycin
Experimental: as §3

[11] = test system: Staphylococcus aureus T2510; test: Antimicrobial assay (MIC, agar dilution); type: cell-based; settings: vancomycin
Experimental: as §3

[12] = test system: Enterococcus faecalis T37B1; test: Antimicrobial assay (MIC, agar dilution); type: cell-based; settings: vancomycin
Experimental: as §3

[13] = test system: Staphylococcus aureus T281; test: Antimicrobial assay (MIC, agar dilution); type: cell-based; settings: vancomycin
Experimental: as §3

Escherichia coli T20A2 = test: Antimicrobial assay (MIC, agar dilution); type: cell-based; settings: vancomycin
Experimental: as §3

[14] = test system: Pseudomonas aeruginosa ATCC9027; test: Antimicrobial assay (MIC, agar dilution); type: cell-based; settings: vancomycin
Experimental: as §3

[15] = test system: Corynebacterium striatum T40A3; test: Antimicrobial assay (MIC, agar dilution); type: cell-based; settings: vancomycin
Experimental: as §3

[16] = test system: Staphylococcus epidermidis T151; test: Antimicrobial assay (MIC, agar dilution); type: cell-based; settings: vancomycin
Experimental: as §3

[17] = test system: Staphylococcus lugdunensis T47B2; test: Antimicrobial assay (MIC, agar dilution); type: cell-based; settings: vancomycin
Experimental: as §3

[18] = test system: Staphylococcus aureus T61; test: Antimicrobial assay (MIC, agar dilution); type: cell-based; settings: vancomycin
Experimental: as §3

[19] = test system: Staphylococcus epidermidis T19A1; test: Antimicrobial assay (MIC, agar dilution); type: cell-based; settings: vancomycin
Experimental: as §3

[20] = test system: Staphylococcus saprophyticus 8237; test: Antimicrobial assay (MIC, agar dilution); type: cell-based; settings: vancomycin
Experimental: as §3

[21] = test system: Dermabacter hominis T49B5; test: Antimicrobial assay (MIC, agar dilution); type: cell-based; settings: vancomycin
Experimental: as §3

[22] = test system: Enterococcus faecalis T47A16; test: Antimicrobial assay (MIC, agar dilution); type: cell-based; settings: vancomycin
Experimental: as §3

[23] = test system: Staphylococcus aureus T21; test: Antimicrobial assay (MIC, agar dilution); type: cell-based; settings: vancomycin
Experimental: as §3

[24] = test system: Staphylococcus aureus T11; test: Antimicrobial assay (MIC, agar dilution); type: cell-based; settings: vancomycin
Experimental: as §3

[25] = test system: Staphylococcus aureus T306; test: Antimicrobial assay (MIC, agar dilution); type: cell-based; settings: vancomycin
Experimental: as §3

[26] = test system: Staphylococcus pettenkoferi T33; test: Antimicrobial assay (MIC, agar dilution); type: cell-based; settings: vancomycin
Experimental: as §3

[27] = test system: Streptococcus agalactiae T53A4; test: Antimicrobial assay (MIC, agar dilution); type: cell-based; settings: vancomycin
Experimental: as §3

[28] = test system: Dermabacter hominis T47A7; test: Antimicrobial assay (MIC, agar dilution); type: cell-based; settings: vancomycin
Experimental: as §3

[29] = test system: Staphylococcus aureus 8148; test: Antimicrobial assay (MIC, agar dilution); type: cell-based; settings: vancomycin
Experimental: as §3

[30] = test system: Staphylococcus aureus T26A4; test: Antimicrobial assay (MIC, agar dilution); type: cell-based; settings: vancomycin
Experimental: as §3

[31] = test system: Pseudomonas aeruginosa T41; test: Antimicrobial assay (MIC, agar dilution); type: cell-based; settings: vancomycin
Experimental: as §3

In the case of `C=C(C)[C@@H]1CC[C@]2(C)CC[C@]3(C)[C@H](CC[C@@H]4[C@@]5(C)CC[C@H](O)C(C)(C)[C@@H]5CC[C@]43C)[C@@H]12` [Compound 1, lupeol], the IC50 ([1]; Mus musculus, J774, MTT, 72 h, mean ± SEM, six determinations) is reported as 12.6 ± 0.23 µg/mL, the “SI (IC50 WI38/IC50 J774)” value [1] is reported as 1.5^∗∗∗ and the “SI (IC50 WI38/IC50 J774)” value ([1]; listed as Lupeol) is reported as 1.5. The IC50 [2] was 19.2 ± 0.55 µg/mL.
For `C[C@H](C/C=C/C(C)(C)OO)[C@H]1CC[C@@]2(C)[C@@H]3CC[C@H]4C(C)(C)[C@@H](O)CC[C@@]45C[C@@]35CC[C@]12C` [Compound 3a, 25-hydroperoxycycloart-23-en-3β-ol], the “cytotoxic activity” value [3] is given as “significant cytotoxic activity”.
In the case of `C=C(C)C(CC[C@@H](C)[C@H]1CC[C@@]2(C)[C@@H]3CC[C@H]4C(C)(C)[C@@H](O)CC[C@@]45C[C@@]35CC[C@]12C)OO` (stereo partly drawn) [Compound 3b, 24-hydroperoxycycloart-25-en-3β-ol], the “cytotoxic activity” value [3] is given as “significant cytotoxic activity”.
For `CN[C@H](CC(C)C)C(=O)N[C@H]1C(=O)N[C@@H](CC(N)=O)C(=O)N[C@H]2C(=O)N[C@H]3C(=O)N[C@H](C(=O)N[C@H](C(=O)O)c4cc(O)cc(O)c4-c4cc3ccc4O)[C@H](O)c3ccc(c(Cl)c3)Oc3cc2cc(c3O[C@@H]2O[C@H](CO)[C@@H](O)[C@H](O)[C@H]2O[C@H]2C[C@](C)(N)[C@H](O)[C@H](C)O2)Oc2ccc(cc2Cl)[C@H]1O` [Vanc, vancomycin], the “Reference antibiotics MIC values” [4] was “S (Vanc (vancomycin), S: ≤4)”, the “Reference antibiotics MIC values” [5] was “S (Vanc (vancomycin), S: ≤4)” and the “Reference antibiotics MIC values” [6] was “S (Vanc (vancomycin), S: ≤4)”. The “Reference antibiotics MIC values” [7] was “S (Vanc (vancomycin), S: ≤4)”, the “Reference antibiotics MIC values” [8] was “S (Vanc (vancomycin), S: ≤4)” and the “Reference antibiotics MIC values” [9] was “S (Vanc (vancomycin), S: ≤4)”. The “Reference antibiotics MIC values” [10] was “S (Vanc (vancomycin), S: ≤4)”, the “Reference antibiotics MIC values” [11] was “S (Vanc (vancomycin), S: ≤4)” and the “Reference antibiotics MIC values” [12] was “S (Vanc (vancomycin), S: ≤4)”. The “Reference antibiotics MIC values” [13] was “S (Vanc (vancomycin), S: ≤4)”, the “Reference antibiotics MIC values” (Escherichia coli T20A2) was “R (R: >16)” and the “Reference antibiotics MIC values” [14] was “R (R: >16)”. For the same molecule, the “Reference antibiotics MIC values” [15] was “S (Vanc (vancomycin), S: ≤4)”, the “Reference antibiotics MIC values” [16] was “S (Vanc (vancomycin), S: ≤4)” and the “Reference antibiotics MIC values” [17] was “S (Vanc (vancomycin), S: ≤4)”. For the same molecule, the “Reference antibiotics MIC values” [18] was “S (Vanc (vancomycin), S: ≤4)”, the “Reference antibiotics MIC values” [19] was “R (R: >16)” and the “Reference antibiotics MIC values” [20] was “S (Vanc (vancomycin), S: ≤4)”. For the same molecule, the “Reference antibiotics MIC values” [21] was “S (Vanc (vancomycin), S: ≤4)”, the “Reference antibiotics MIC values” [22] was “S (Vanc (vancomycin), S: ≤4)” and the “Reference antibiotics MIC values” [23] was “S (Vanc (vancomycin), S: ≤4)”. For the same molecule, the “Reference antibiotics MIC values” [24] was “S (Vanc (vancomycin), S: ≤4)”, the “Reference antibiotics MIC values” [25] was “S (Vanc (vancomycin), S: ≤4)” and the “Reference antibiotics MIC values” [26] was “S (Vanc (vancomycin), S: ≤4)”. The “Reference antibiotics MIC values” [27] was “R (R: >16)”, the “Reference antibiotics MIC values” [28] was “S (Vanc (vancomycin), S: ≤4)” and the “Reference antibiotics MIC values” [29] was “S (Vanc (vancomycin), S: ≤4)”. For the same molecule, the “Reference antibiotics MIC values” [30] was “S (Vanc (vancomycin), S: ≤4)” and the “Reference antibiotics MIC values” [31] was “R (R: >16)”.
